Tests used:
ADAM17 = target: T1, ADAM17 (Homo sapiens, UniProt P78536); test: ADAM17 glycosylated substrate uHTS/HTS assay; assay type: biochemical; conditions: original uHTS dose response, 10-point 1:3 dilutions starting at 70 µM
T1 construct: purchased R&D Systems 930-ADB
Protocol: Both assays followed the same general protocol. […] After 30 min incubation at RT, the reactions were started by addition of 2.5 µL of 2x solutions of glycosylated substrate (20 µM). Reactions were incubated at RT for 2 h, after which the fluorescence was measured using Perkin Elmer Viewlux multimode microplate imager (λexcitation = 360 nm, λemission = 460 nm). Final concentration of test compounds in assays was 7.0 µM.
The miniaturized 1536-well plate format ADAM10 and ADAM17 assays were used to screen a collection of ≈370,000 compounds (MLSMR library, provided by the NIH) on the automated Kalypsys/GNF platform at the Scripps Research Institute Molecular Screening Center (SRIMSC, Jupiter, FL. More details at http://hts.florida.scripps.edu/). […] Both uHTS campaigns were run separately but in a similar manner. Briefly, the first step was the primary screen of all MLSMR’s test compounds as singlicate against the ADAM10 or ADAM17 target at a final concentration of 7.0 μM. Next, compounds selected as primary hits were cherry-picked and retested in triplicate against the primary screen target and its anti-target (ADAM17 for the ADAM10 screening effort, and vice-versa) at the same final concentration of 7.0 μM. […] All data generated during this effort were uploaded to the SRIMSC’s institutional screening database (Assay Explorer, Symyx). Sample to background (S/B) ratios, as well as Z and Z′ values were calculated on a per-plate basis as described before. Curve fitting and resulting IC50 determinations were performed as previously reported.

BT474 cells = test: Cell toxicity study (CellTiter-Glo), BT474; assay type: cell-based; conditions: 72 h
Protocol: Test compounds were solubilized in 100% DMSO and added to polypropylene 384 well plates (Greiner cat# 781280). 1,250 of BT474 or HEK293 cells were plated in 384-well plates in 8 µL of serum-free media (HybriCare for BT474, EMEM for HEK293). Test compounds and pharmacological assay control (lapatinib) were prepared as 10-point, 1:3 serial dilutions starting at 10 mM, then added to the cells using the pin tool mounted on Biomek NX^P. Plates were incubated for 72 h at 37 °C, 5% CO2 and 95% RH. After incubation, 8 µL of CellTiter-Glo® (Promega cat# G7570) was added to each well, and incubated for 15 min at room temperature. Luminescence was recorded using a Biotek Synergy H4 multimode microplate reader. Viability was expressed as a percentage relative to wells containing media only (0%) and wells containing cells treated with DMSO only (100%). Three parameters were calculated on a per-plate basis: (a) the signal-to-background ratio (S/B); (b) the coefficient for variation [CV; CV = (standard deviation/mean) × 100)] for all compound test wells; and (c) the Z′-factor. IC50 values were calculated by fitting normalized data to sigmoidal log vs. response equation utilizing non-linear regression analysis from GraphPad Prizm 6.

panel of metzincins = test: Dose response against a panel of metzincins (MMP, meprin, ADAM assays); assay type: biochemical; conditions: reordered powder, dilutions starting at 100 µM
Protocol: Powders for 4 compounds (CID # 3117694, 730037, 3153587, and 236330) were reordered from corresponding vendors and tested in 10-point, 1:3 serial dilutions starting at 100 µM in triplicate against ADAM10 and ADAM17 and a panel of metzincins. We examined the activity and selectivity of lead CID 3117694 using an ADAM10 and 17 HPLC-based assays using glycosylated substrate (Fig. 2A).
All assays followed the same general protocol. 5 µL of 2x enzyme solution (5 nM) in assay buffer (50 mM Tricine, 50 mM NaCl, 10 mM CaCl2, 0.05% Brij-35, pH 7.5) were added to solid bottom black 384 plates (Nunc, cat# 264705). Next, test compounds and pharmacological controls were added to corresponding wells using a 384 pin tool device (V&P Scientific, San Diego). […] Reactions were incubated at RT for 1 h, after which the fluorescence was measured using the Synergy H4 multimode microplate reader (Biotek Instruments) (λexcitation = 324 nm, λemission = 390 nm).
Both assays followed the same general protocol. […] After 30 min incubation at RT, the reactions were started by addition of 5 µL of 2x solutions of substrates (20 µM, mepin α Mca-YVADAPK-K(Dnp); and for meprin β Mca-EDEDED-K(Dnp). Reactions were incubated at RT for 1 h, after which the fluorescence was measured using the Synergy H4 multimode microplate reader (Biotek Instruments) (λexcitation = 324 nm, λemission = 390 nm).

ADAM10 = target: T2, ADAM10 (Homo sapiens, UniProt O14672); test: ADAM10 non-glycosylated substrate assay; assay type: biochemical; conditions: non-glycosylated substrate
T2 construct: purchased R&D Systems 936-AD
T2 sequence (O14672 214-748): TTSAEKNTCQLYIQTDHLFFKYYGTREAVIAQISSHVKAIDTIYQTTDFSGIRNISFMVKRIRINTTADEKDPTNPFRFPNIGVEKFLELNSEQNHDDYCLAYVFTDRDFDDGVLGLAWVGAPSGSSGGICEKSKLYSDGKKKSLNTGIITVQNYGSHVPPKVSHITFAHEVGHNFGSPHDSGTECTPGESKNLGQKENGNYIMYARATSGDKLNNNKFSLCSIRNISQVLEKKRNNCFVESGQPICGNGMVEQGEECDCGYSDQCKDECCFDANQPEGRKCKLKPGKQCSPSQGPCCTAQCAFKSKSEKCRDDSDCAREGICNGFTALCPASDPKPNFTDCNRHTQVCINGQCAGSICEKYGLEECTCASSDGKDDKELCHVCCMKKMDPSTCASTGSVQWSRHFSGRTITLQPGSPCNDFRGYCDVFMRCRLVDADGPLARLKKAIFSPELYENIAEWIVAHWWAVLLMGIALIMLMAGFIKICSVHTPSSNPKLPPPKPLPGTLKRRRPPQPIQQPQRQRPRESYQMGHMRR
Text: Additionally, we synthesized a non-glycosylated version, E(Edans)-[…]-K(Dabcyl), to be used as a control in the follow-up studies.

T1 sequence (P78536 215-824): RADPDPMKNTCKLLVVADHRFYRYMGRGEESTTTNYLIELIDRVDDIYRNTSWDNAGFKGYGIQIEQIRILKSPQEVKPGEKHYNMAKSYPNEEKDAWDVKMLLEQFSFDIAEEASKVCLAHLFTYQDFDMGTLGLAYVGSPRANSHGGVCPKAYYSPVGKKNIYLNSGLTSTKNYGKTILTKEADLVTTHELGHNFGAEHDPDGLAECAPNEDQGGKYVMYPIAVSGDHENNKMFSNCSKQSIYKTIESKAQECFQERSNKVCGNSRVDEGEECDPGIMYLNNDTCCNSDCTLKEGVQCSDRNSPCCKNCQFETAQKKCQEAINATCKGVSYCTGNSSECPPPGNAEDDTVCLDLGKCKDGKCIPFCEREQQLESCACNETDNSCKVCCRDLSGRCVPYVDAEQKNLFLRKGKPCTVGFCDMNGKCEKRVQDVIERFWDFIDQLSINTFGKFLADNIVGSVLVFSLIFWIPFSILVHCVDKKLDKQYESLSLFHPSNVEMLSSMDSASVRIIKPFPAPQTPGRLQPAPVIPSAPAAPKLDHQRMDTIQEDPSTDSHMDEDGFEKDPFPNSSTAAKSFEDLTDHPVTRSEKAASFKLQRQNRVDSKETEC

IC50 (ADAM17): > 70 µM
IC50 (ADAM10): > 100 µM
SMILES: COc1cccc(C(=O)NNC(=O)C(=O)Nc2ccc(C)c(Cl)c2)c1 [CID 3117694]
effect on viability of BT474 cells (BT474 cells): did not affect viability
inhibition of 11 tested metzincins (including ADAM10 and ADAM17) (panel of metzincins): only ADAM10 was appreciably inhibited

Reference: paper PMC5431342, “Discovery of an enzyme and substrate selective inhibitor of ADAM10 using an exosite-binding glycosylated substrate” (Scientific Reports, 2016)
